Source: paper PMC10160475, “Biological evaluation and in silico studies of novel compounds as potent TAAR1 agonists that could be used in schizophrenia treatment” (Frontiers in Pharmacology, 2023)

Tests used:
[1] = tested on: MK801-induced schizophrenia-like behavior; test: MK801-induced schizophrenia-like behavior (open field, distance traveled); type: in vivo, C57BI/6J mice
Description: Ninety-nine male C57BI/6J mice were divided randomly into 11 groups. Mice were placed in a room 1 h before testing. They were administered (p.o.) vehicle (0.1 ml/10 g), 50A (0.3, 1, 3, and 10 mg/kg; 0.1 ml/10 g), or 50B (0.3, 1, 3, and 10 mg/kg; 0.1 ml/10 g). […] Then, mice were administered (i.p.) MK801 (0.8 mg/kg dissolved in physiologic saline; 0.1 ml/10 g). After 30 min, the distance that mice traveled was measured.
Forty-six male C57BI/6J mice were divided randomly into four groups. The CN group contained four mice. […] The administration method described previously was employed.

human TAAR1 = target: T1, human TAAR1 (Homo sapiens, UniProt Q96RJ0); test: cAMP assay, functional agonist activity at human TAAR1; type: cell-based
T1 construct: expressed in transfected cells; host or cells: cAMP Hunter CHO-K1 AGTRL1 Gi cells
T1 sequence (Q96RJ0 1-339): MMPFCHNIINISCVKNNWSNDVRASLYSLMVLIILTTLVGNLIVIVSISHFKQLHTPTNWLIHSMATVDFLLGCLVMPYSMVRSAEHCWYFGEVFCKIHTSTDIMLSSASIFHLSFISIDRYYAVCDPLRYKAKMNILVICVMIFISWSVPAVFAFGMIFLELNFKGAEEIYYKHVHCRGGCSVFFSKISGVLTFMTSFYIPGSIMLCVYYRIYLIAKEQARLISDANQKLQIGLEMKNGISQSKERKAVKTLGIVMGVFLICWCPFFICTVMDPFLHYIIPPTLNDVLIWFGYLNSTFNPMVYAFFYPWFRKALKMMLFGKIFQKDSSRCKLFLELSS
Description: Cells were seeded in a total volume of 20 µL into white-walled, 384-well microplates, followed by incubation at 37°C for the appropriate time before testing. Different concentrations of compounds were added to cells, and incubation was undertaken at 37°C for 10 min, with p-tyramine used as the MAX control. cAMP modulation was determined using the DiscoverX HitHunter cAMP XS + assay. Percentage activity was calculated using the following equation: Activity %=mean RLUtest sample – mean RLUvehicle control/mean RLUMAX control – mean RLUvehicle control×100%.

catalepsy = test: Catalepsy assay (bar test); type: in vivo, C57BI/6J mice; settings: 100 mg/kg p.o., 30 and 90 min after administration
Description: Twenty-four male C57BI/6J mice were divided randomly into four groups. Mice were placed in a room 1 h before testing. […] The front paws of mice were placed on a horizontal metal bar raised 2 inches above a Plexiglas™ platform 30 min and 90 min after administration. The time the front paws of mice were placed on the platform was recorded at ≤30 s per trial. Each test was repeated three times.

c1csc([C@H]2CNCCO2)c1 [Compound 50A]
Inhibition of MK801-induced schizophrenia-like behavior (effective doses) ([1]; mice, single oral dose 0.3, 1, 3 and 10 mg/kg, MK801 0.8 mg/kg i.p.): only at 1 mg/kg | Distance moved by mice in the presence or absence of MK801 ([1]; single oral dose 0.3, 1, 3 and 10 mg/kg): significantly reduced the distance moved by mice | EC50 (human TAAR1): 6.25 µM | Emax (human TAAR1; cAMP modulation, p-tyramine as MAX control, read-out: TAAR1 Agonist % Emax): 64% | Time mice spent holding bars (catalepsy) (catalepsy): did not increase this time

O=C1CCc2ccc(OCCCCN3CCN(c4cccc(Cl)c4Cl)CC3)cc2N1 [aripiprazole, reference compound]
MK801-induced schizophrenia-like behavior ([1]; mice, aripiprazole 5 mg/kg p.o., MK801 0.8 mg/kg i.p.): significantly reduced

Cc1nc2n(c(=O)c1CCN1CCC(c3noc4cc(F)ccc34)CC1)CCCC2 [risperidone, reference compound]
MK801-induced schizophrenia-like behavior ([1]; mice, risperidone 0.1 mg/kg p.o., MK801 0.8 mg/kg i.p.): significantly reduced
